# Legend:
# [1] = tested on: cholinergic system (nucleus basalis, hippocampus); assay: AChE histochemistry of cholinergic cells and fibres; type: in vivo, male C57BI/6 mice; conditions: age 24 months, RES versus CON
# Protocol: The experiment was performed with male C57BI/6 mice (Harlan, Horst, The Netherlands). Animals were individually housed under a 12 hours light/12 hours dark cycle with lights on at 8:00. Food and drinking water were provided ad libitum, except for the period of behavioural testing as described below. The experiment was started with 60 mice, half of which served as control (CON) and half of which received resveratrol in their food from the age of 1 year onwards (RES). Between the ages of 18 and 20 month, spatial learning performance of the animals was studied in a Y-maze test. […]
# For histology, brain tissue was cryoprotected in 30% sucrose in 0.1 M phosphate buffer for 48 h after which 20 μm sections were cut with a cryostat (Leica CM3050). […] Cells positive for AChE were quantified in sections containing nucleus basalis (around bregma −0.7) and AChE fibre density measurements were performed by a computerized image analysis system Quantimet (Leica) in the dorsal hippocampus.
# (§1) Behavioural performance was statistically analyzed with a one way ANOVA paradigm for repeated measures. Immunocytochemical data and EM data were statistically analyzed with an independent samples T-test (2-tailed). Data are expressed as averages ±S.E.M. P<0.05 was considered as significant.
# [2] = tested on: hippocampal microvessels; assay: Electron microscopy of the cerebrovascular system; type: in vivo, male C57BI/6 mice; conditions: age 24 months
# Protocol: (§2) The experiment was performed with male C57BI/6 mice (Harlan, Horst, The Netherlands). Animals were individually housed under a 12 hours light/12 hours dark cycle with lights on at 8:00. Food and drinking water were provided ad libitum, except for the period of behavioural testing as described below. The experiment was started with 60 mice, half of which served as control (CON) and half of which received resveratrol in their food from the age of 1 year onwards (RES). Between the ages of 18 and 20 month, spatial learning performance of the animals was studied in a Y-maze test. At the age of 24 month, brains were collected and processed for immunocytochemistry to asses cholinergic parameters and electron microscopy for several cerebrovascular analyses. The procedures concerning animal care and treatment were in accordance with the regulations of the ethical committee for the use of experimental animals of the University of Groningen.
# At the age of 24 months animals were sacrificed for histochemical and electronmicroscopical analysis. Mice were anaesthetized by a high dose of pentobarbital sodium salt (Nembutal, 60 mg/kg bodyweight) and transcardially perfused with heparinised saline followed by 4% phosphate buffered paraformaldehyde. After perfusions, brains were removed from the skull and kept in 0.01 M PBS overnight. […]
# After perfusion, 18 brains were prepared for electron microscopy using standard methods. […] The samples were then coverslipped with DPX and analyzed under a light microscope. […] Finally, the samples were analyzed and photographs were taken with a Philips TM10 transmission electron microscope.
# For quantitative analysis, approximately 4000 μm^2 tissue surface was scanned systematically in each region, and 61±10 microvascular cross sections were examined in each sample. Vascular density was calculated for a standard surface area with the help of the sample grid. In addition to microvessel density, the occurrence of the following features were quantitated: luminal endothelial protrusions, large empty endothelial vacuoles and basement membrane thickening. […] The number of microvessels displaying any of the noted abnormalities was counted and expressed as percentage of the total number of microvessels examined. Capillaries and arterioles were analyzed separately. Since arterioles were encountered at high enough number for statistical analysis only in the hippocampal vascular layer, quantitative analysis of arteriolar condition was performed for this region of the hippocampus alone.
# as §1
# [3] = tested on: aged mice; assay: Open field test (general explorative activity); type: in vivo, male C57BI/6 mice; conditions: chronic supplementation
# Protocol: as §2, with “The procedures concerning animal care and treatment were in accordance with the regulations of the ethical committee for the use of experimental animals of the University of Groningen.” left out
# To examine general explorative activity, mice were subjected to an open-field test for 5 minutes. […] Position and locomotion of the mice was recorded and analyzed with a computerized video tracking system (Ethovision, Noldus Information Technology, Wageningen, The Netherlands). The number of visits and time spend in each of the two zones was determined. […]
# as §1
# [4] = Survival, food intake, body weight and general health under chronic dietary supplementation; type: in vivo
# Protocol: as §2
# To rule out differences in food intake between animals on a control diet and resveratrol-supplemented diet, food intake and body weight were monitored every two weeks. To establish whether resveratrol provided in the food enters the circulation, a pilot experiment was performed in which blood was collected from mice by decapitation after 1 day and 30 days of supplementation. Plasma concentrations of resveratrol were measured. After 1 day of supplementation, resveratrol levels in the plasma were 88.5 μg/l at the end of the dark phase or active phase, when mice consume most of their food, and 41 μg/l at the end of the light phase or resting phase (n=3 each). After 1 month of supplementation, the levels were 102.7 and 30.7 μg/l at the end of active phase and rest phase, respectively (n=3 each). These measurements confirm that resveratrol ingested via the food indeed entered the circulation, and the levels appeared to fluctuate over the day in a fashion that paralleled food intake. Supplementation of resveratrol via food thus seemed an appropriate and simple method for further studies.
# Animals received resveratrol in their food from 1 year of age onwards. […]
# [5] = tested on: aged mice; assay: Y-maze spatial learning test; type: in vivo, male C57BI/6 mice
# Protocol: as §2
# To examine cognitive performance, the mice were subjected to a Y-maze test in which they had to learn the location of a food reward in one of two accessible choice arms. […] The home cages of the mice were equipped with a small sliding door that connected to the starting arm. One of the two test arms was baited with a food reward consisting of small crumbs of the regular food. Food crumbs were also placed below perforations at the end of the two test arms to prevent animals from discriminating between baited and non-baited arms by olfactory cues. […]
# The Y-maze test took place during the first half of the light phase between 10:00 and 14:00 in a room adjacent to the home cage room. […] A visit to the baited arm was recorded as a correct trial. […]
# as §1
# [6] = hippocampal microvessels, versus control
smiles,measurement,setting,value
"Oc1ccc(C=Cc2cc(O)cc(O)c2)cc1 [Resveratrol, 3,5,4′-trihydroxystilbene]",cholinergic cell number in the nucleus basalis,[1],did not reveal any difference
same,cholinergic fibre density in the CA1 and dentate gyrus of the hippocampus,[1],unchanged
same,"vascular density in the hippocampus, higher than in control animals","[2]; chronic supplementation, p=0.019",about 15%
same,number of microvessels with endothelial vacuoles,"[2]; hippocampal arterioles, versus control, p=0.05",significantly reduced
same,occurrence of basement membrane thickening,[2]; [6],not significantly affected
same,occurrence of endothelial processes,[2]; [6],not significantly affected
same,more time spent in the centre of the arena than control animals,"[3]; 5 minutes open field test, p=0.003",about 50%
same,locomotion (total distance covered) in open field,"[3]; 5 minutes test, RES versus CON",the same amount of locomotion
same,"food intake, growth and body weight","[4]; mouse, in vivo","did not affect food intake, growth and body weight"
same,general health (regular visual inspection),"[4]; mouse, in vivo",did not indicate obvious differences in general health
same,mortality rate,"[4]; resveratrol in food from 1 year to 24 months of age, RES versus CON",no significant differences in mortality rate
same,Y-maze final level of performance on day 3 and retention trial on day 10,[5]; RES versus CON,not different
same,Y-maze performance on the second day of the training phase,"[5]; posthoc test, RES versus CON, p<0.05",performed better then CON animals
same,Y-maze learning (number of correct choices on day 1 to 3),"[5]; training phase, age 18-20 months, repeated measures ANOVA p=0.016",improved learning
